Data as given in PubChem BioAssay (NCI).
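Protocol summary: plate cells (96-well), add compound at 5 concentrations, incubate 48 h, interpolate endpoints linearly. The concentration for full growth arrest is given as TGI.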

Tests used:
Assay in all cases: NCI tumour cell line growth inhibition, 48 h
786-0 renal = system: 786-0 renal
A498 renal = system: A498 renal
DMS 273 small cell lung = system: DMS 273 small cell lung
HL-60(TB) leukemia = system: HL-60(TB) leukemia
K-562 leukemia = system: K-562 leukemia
MALME-3M melanoma = system: MALME-3M melanoma
MOLT-4 leukemia = system: MOLT-4 leukemia
NCI-H460 lung = system: NCI-H460 lung
OVCAR-5 ovarian = system: OVCAR-5 ovarian
SF-295 CNS = system: SF-295 CNS
SF-539 CNS = system: SF-539 CNS
TK-10 renal = system: TK-10 renal
OVCAR-3 ovarian = system: OVCAR-3 ovarian
OVCAR-4 ovarian = system: OVCAR-4 ovarian
RXF 393 renal = system: RXF 393 renal
BT-549 breast = system: BT-549 breast
DU-145 prostate = system: DU-145 prostate
MDA-MB-435 = system: MDA-MB-435
MDA-N = system: MDA-N
PC-3 prostate = system: PC-3 prostate

| SMILES | TGI (786-0 renal) [µM] | TGI (A498 renal) [µM] | TGI (DMS 273 small cell lung) [µM] | TGI (HL-60(TB) leukemia) [µM] | TGI (K-562 leukemia) [µM] | TGI (MALME-3M melanoma) [µM] | TGI (MOLT-4 leukemia) [µM] | TGI (NCI-H460 lung) [µM] | TGI (OVCAR-5 ovarian) [µM] | TGI (SF-295 CNS) [µM] | TGI (SF-539 CNS) [µM] | TGI (TK-10 renal) [µM] | TGI (OVCAR-3 ovarian) [µM] | TGI (OVCAR-4 ovarian) [µM] | TGI (RXF 393 renal) [µM] | TGI (BT-549 breast) [µM] | TGI (DU-145 prostate) [µM] | TGI (MDA-MB-435) [µM] | TGI (MDA-N) [µM] | TGI (PC-3 prostate) [µM] |
| --- | --- | --- | --- | --- | --- | --- | --- | --- | --- | --- | --- | --- | --- | --- | --- | --- | --- | --- | --- | --- |
| CN(C(=O)C12C3C4C1C1C4(C(=O)C45C6C7C4C4C5C6C74C)C3C12C)C(C)(C)C (centres undefined) | > 100 | > 100 | > 100 | 43.2 | > 100 | > 100 | > 100 | > 100 | > 100 | > 100 | > 100 | > 100 | – | – | – | – | – | – | – | – |
| N#Cc1c(NN)nc(NN)c(C#N)c1-c1ccccc1 | > 100 | > 100 | > 100 | > 100 | > 100 | > 100 | > 100 | > 100 | > 100 | > 100 | > 100 | > 100 | > 100 | > 100 | > 100 | – | – | – | – | – |
| COC(=O)N1CCc2c(nc(N(C)CCO)[nH]c2=O)C1 | > 100 | > 100 | > 100 | > 100 | > 100 | > 100 | > 100 | > 100 | > 100 | > 100 | > 100 | > 100 | > 100 | – | > 100 | – | – | – | – | – |
| CCCCCC/C=C1\CCC(CN2CCCC2)C1=O (centres undefined) | 6.43 | 38.4 | 25.5 | – | 12.6 | 34.6 | > 87 | > 62.1 | 32.3 | 34.1 | 34.1 | 17.4 | 27.3 | 49.1 | 33.5 | – | – | – | – | – |
| O=C1CCC(=O)N1Cc1ccccc1N=[N+]([O-])c1ccccc1CN1C(=O)CCC1=O | > 100 | – | > 100 | > 100 | > 100 | > 100 | > 100 | > 100 | > 100 | > 100 | > 100 | > 100 | > 100 | > 100 | > 100 | – | – | – | – | – |
| CCOP(=O)(CCCC(O)CNc1cc(Cl)nc(N)n1)OCC (centres undefined) | > 100 | > 100 | – | > 100 | > 100 | > 100 | > 100 | > 100 | > 100 | > 100 | > 100 | > 100 | > 100 | > 100 | > 100 | > 100 | > 100 | > 100 | > 100 | > 100 |
| COc1cc(CNc2ccc3nc4n(c(=O)c3c2)CCCCC4)cc(OC)c1OC | > 100 | > 100 | – | > 100 | > 100 | > 100 | > 100 | > 100 | > 100 | > 100 | > 100 | > 100 | > 100 | > 100 | > 100 | 71.6 | > 100 | > 100 | > 100 | > 100 |
| CN(CCCCN1CCCC1)CCCN(C)C(=O)Cc1ccc(Cl)c(Cl)c1 | 26.1 | 30.7 | – | 34.1 | 11.6 | 34.7 | 26.5 | 39.8 | 57.8 | 38.8 | 24.3 | 33.7 | 62.4 | 53.8 | 29.6 | 32.5 | > 100 | 10.2 | 15.5 | 52.7 |
| O=c1cc2ccccc2nn1Cc1cccc(Cl)c1 | > 100 | > 100 | > 100 | – | > 100 | > 100 | – | > 100 | > 100 | > 100 | > 100 | > 100 | > 100 | > 100 | – | – | – | – | – | – |
| CCCCc1c2c(nc3c1CCCC3O)CCCC2 (centres undefined) | > 100 | > 100 | – | > 100 | > 100 | > 100 | > 100 | > 100 | > 100 | > 100 | > 100 | > 100 | > 100 | > 100 | > 100 | > 100 | > 100 | > 100 | > 100 | > 100 |
| COc1ccc(/C=C/C(=O)/C=C/c2ccc(OC)cc2)cc1 | > 100 | > 100 | – | 53.7 | > 100 | > 100 | > 100 | > 100 | > 100 | > 100 | 72.7 | > 100 | > 100 | > 100 | 36.6 | > 100 | > 100 | 29.6 | 49 | > 100 |
| Cc1nc2sc3ccccc3n2c(=O)c1N=Nc1ccc(Br)cc1 | > 100 | > 100 | – | > 100 | > 100 | > 100 | > 100 | > 100 | > 100 | > 100 | > 100 | > 100 | > 100 | > 100 | > 100 | > 100 | > 100 | > 100 | > 100 | > 100 |
| Oc1cc(Br)cc2cccnc12 | 38 | 24.3 | – | 0.82 | 8.08 | 47 | 9.84 | 17 | > 100 | 32.7 | > 45.1 | > 100 | 13.7 | > 65.3 | 30.4 | 98 | > 100 | > 60 | 97 | > 100 |
| Clc1cc(Cc2cc(Cl)c(Cl)c3c2OCOC3)c2c(c1Cl)COCO2 | 62.4 | 80.4 | > 100 | > 100 | > 100 | > 100 | > 100 | > 100 | > 100 | 78.8 | 52.3 | > 100 | 69 | 43.9 | 70.3 | – | – | – | – | – |
